Measurements as given in US20090118286A1, “Heterobicyclic Acrylamides” (Bayer Cropscience AG, priority 2005, published 2009).

Assay: log P determination by HPLC (EEC Directive 79/831 Annex V.A8, gradient method)
Assay type: physicochemical

Row | Structure (SMILES) | Physical data (logP) | Physical data: logP | further results
1 | O=C(/C=C/c1c(-c2ccc(Cl)cc2)nc2sc(C(F)(F)F)nn12)NCC1CC1 [Example 0015] | 3.72 |  | 
2 | O=C(/C=C/c1c(-c2cccc(C(F)(F)F)c2)nc2sc(C(F)(F)F)nn12)NOCC1CC1 [Example 0424] |  |  | Physical data: log P: 3.81
3 | CCC(CC)NC(=O)/C=C/c1c(-c2ccc(Cl)cc2)nc2sc(C(F)(F)F)nn12 [Example 0064] | 4.23 |  | 
4 | CSC[C@H](C)NC(=O)/C=C/c1c(-c2ccc(Cl)cc2Cl)nc2sc(C(F)(F)F)nn12 [Example 0001, (2E)-3-[6-(2,4-Dichlorophenyl)-2-(trifluoromethyl)imidazo[2,1-b][1,3,4]thiadiazol-5-yl]-N-[(1S)-1-methyl-2-(methylthio)ethyl]acrylamide] |  |  | chromatographic logP (HPLC gradient method, acetonitrile/0.1% strength aqueous phosphoric acid or formic acid, preparation examples, read-out: log P): 3.91
5 | CCN(CC)C(=O)/C=C/c1c(-c2ccc(F)cc2)nc2sc(C(F)(F)F)nn12 [Example 0363] |  |  | Physical data: log P: 3.72
6 | O=C(/C=C/c1c(-c2cccc(Cl)c2)nc2sc(C(F)(F)F)nn12)NC1CCCC1 [Example 0084] | 4.13 |  | 
7 | O=C(/C=C/c1c(-c2ccc(F)cc2)nc2sc(C(F)(F)F)nn12)NCC1CC1 [Example 0308] |  |  | Physical data: log P: 3.33
8 | COc1ccc(-c2nc3sc(C(F)(F)F)nn3c2/C=C/C(=O)NOC(C)c2ccccc2)cc1OC (centres unmarked) [Example 0708] |  | 3.37 | 
9 | CC(NC(=O)/C=C/c1c(-c2ccccc2Cl)nc2sc(C(F)(F)F)nn12)C(F)(F)F (single isomer, unassigned) [Example 0184] | 3.63 |  | 
10 | COCc1nn2c(/C=C/C(=O)NC3CCCCC3)c(-c3ccccc3Cl)nc2s1 [Example 0832] |  | 3.12 | 
11 | O=Cc1c(-c2ccccc2Cl)nc2sc(C(F)(F)C(F)(F)F)nn12 [IVA111] | 3.47 |  | 
12 | CC(C)C(NC(=O)C=Cc1c(-c2ccc(F)cc2Cl)nc2sc(C(F)(F)C(F)(F)F)nn12)C(F)(F)F (centres unmarked) [Example 0975] |  | 4.76 | 
13 | O=C(O)/C=C/c1c(-c2cccc(C(F)(F)F)c2)nc2sc(C(F)(F)F)nn12 [VA-7] | 3.33 |  | 
14 | Cc1cn2c(/C=C/C(=O)NCC(C)C)c(-c3ccccc3Cl)nc2s1 [Example 0860] |  | 2.64 | 
15 | CCN(C)C(=O)/C=C/c1c(-c2ccc(Cl)cc2Cl)nc2sc(C(F)(F)F)nn12 [Example 0569] |  |  | Physical data: log P: 3.82
16 | COCc1nn2c(/C=C/C(=O)Nc3ccc(Cl)cc3)c(-c3ccccc3Cl)nc2s1 [Example 0833] |  | 3.87 | 
17 | O=C(/C=C/c1c(-c2ccccc2Cl)nc2sc(-c3ccc(C(F)(F)F)cc3)nn12)NC1CCCC1 [Example 0853] |  | 4.44 | 
18 | CCC(CC)NC(=O)/C=C/c1c(-c2cccc(Cl)c2)nc2sc(C(F)(F)F)nn12 [Example 0134] | 4.27 |  | 
19 | CC(COc1ccccc1)NC(=O)/C=C/c1c(-c2cccc(C(F)(F)F)c2)nc2sc(C(F)(F)F)nn12 (centres unmarked) [Example 0407] |  |  | Physical data: log P: 4.67
20 | CCN(CC)C(=O)/C=C/c1c(-c2ccccc2C)nc2sc(C(F)(F)F)nn12 [Example 0292] |  |  | Physical data: log P: 3.75
21 | CCC(NC(=O)C=Cc1c(-c2ccc(F)cc2)nc2sc(C(F)(F)F)nn12)C1CCCCC1 (centres unmarked) [Example 0338] |  |  | Physical data: log P: 4.92
22 | CC(NC(=O)/C=C/c1c(-c2cccc(C(F)(F)F)c2)nc2sc(C(F)(F)F)nn12)c1ccccc1 (centres unmarked) [Example 0402] |  |  | Physical data: log P: 4.46
23 | CC(C)C(NC(=O)C=Cc1c(-c2ccc(Cl)nc2)nc2sc(C(F)(F)F)nn12)C(F)(F)F (centres unmarked) [Example 0936] |  | 3.89 | 
24 | CC(C)C(NC(=O)C=Cc1c(-c2sccc2Cl)nc2sc(C(F)(F)F)nn12)C(F)(F)F (centres unmarked) [Example 0923] |  | 4.23 | 

Row | Structure (SMILES) | Physical data (logP) | Physical data: logP | further results
25 | CC(C)(C)NC(=O)/C=C/c1c(-c2ccccc2Cl)nc2sc(C(C)(C)C)nn12 [Example 0801] |  | 3.95 | 
26 | CCN(CC)C(=O)/C=C/c1c(-c2ccccc2Cl)nc2sc(C(F)(F)F)nn12 [Example 0221] |  |  | Physical data: log P: 3.61
27 | O=C(/C=C/c1c(-c2ccccc2F)nc2sc(C(F)(F)F)nn12)N1CCOCC1 [Example 0507] |  |  | Physical data: log P: 2.7
28 | CC(ONC(=O)/C=C/c1c(-c2ccc(Cl)cc2Cl)nc2sc(C(F)(F)F)nn12)c1ccccc1 (centres unmarked) [Example 0565] |  |  | Physical data: log P: 4.23
29 | O=C(/C=C/c1c(-c2ccc(Cl)cc2)nc2sc(C(F)(F)F)nn12)NC1CCC1 [Example 0012] | 3.81 |  | 
30 | Cc1csc2nc(-c3ccccc3Cl)c(/C=C/C(=O)Nc3ccc(Cl)cc3)n12 [Example 0899] |  | 3.24 | 
31 | CN(C)C(=O)/C=C/c1c(-c2ccc(Cl)cc2Cl)nc2sc(C(F)(F)F)nn12 [Example 0568] |  |  | Physical data: log P: 3.46
32 | CCN(CC)C(=O)/C=C/c1c(-c2ccccc2F)nc2sc(C(F)(F)F)nn12 [Example 0505] |  |  | Physical data: log P: 3.45
33 | COCC(C)NC(=O)/C=C/c1c(-c2ccccc2C)nc2sc(C(F)(F)F)nn12 (racemic) [Example 0240] |  |  | Physical data: log P: 3.07
34 | Cc1csc2nc(-c3ccccc3Cl)c(/C=C/C(=O)NC3CCCC3)n12 [Example 0897] |  | 2.46 | 
35 | CCCC(C)NC(=O)/C=C/c1c(-c2cccc(C(F)(F)F)c2)nc2sc(C(F)(F)F)nn12 (centres unmarked) [Example 0381] |  |  | Physical data: log P: 4.56
36 | O=C(/C=C/c1c(-c2cccc(Cl)c2)nc2sc(C(F)(F)F)nn12)NC1CC1 [Example 0082] | 3.31 |  | 
37 | CC(C)(C)NC(=O)/C=C/c1c(-c2cccc(C(F)(F)F)c2)nc2sc(C(F)(F)F)nn12 [Example 0373] |  |  | Physical data: log P: 4.41
38 | CC(C)NC(=O)/C=C/c1c(-c2ccc(Cl)nc2)nc2sc(C(F)(F)F)nn12 [Example 0933] |  | 2.85 | 
39 | O=C(O)/C=C/c1c(-c2ccc(F)cc2Cl)nc2sc(C(F)(F)F)nn12 [VA-9] | 2.84 |  | 
40 | CC(C)NC(=O)/C=C/c1c(-c2sccc2Cl)nc2sc(C(F)(F)F)nn12 [Example 0920] |  | 3.19 | 
41 | CC(C)NC(=O)/C=C/c1c(-c2ccc(F)cc2Cl)nc2sc(C(F)(F)C(F)(F)F)nn12 [Example 0972] |  | 3.79 | 
42 | O=C(/C=C/c1c(-c2cccc(C(F)(F)F)c2)nc2sc(C(F)(F)F)nn12)N1CCOCC1 [Example 0436] |  |  | Physical data: log P: 3.55
43 | Cc1csc2nc(-c3ccccc3Cl)c(/C=C/C(=O)NC(C)C(F)(F)F)n12 (centres unmarked) [Example 0883] |  | 2.59 | 
44 | CC(C)C(NC(=O)/C=C/c1c(-c2ccccc2Cl)nc2sc(C(C)(C)C)nn12)C(F)(F)F (centres unmarked) [Example 0796] |  | 4.46 | 
45 | O=C(/C=C/c1c(-c2ccc(Cl)cc2Cl)nc2sc(C(F)(F)F)nn12)NOCC1CC1 [Example 0563] |  |  | Physical data: log P: 3.68
46 | O=C(/C=C/c1c(-c2cccc(C(F)(F)F)c2)nc2sc(C(F)(F)F)nn12)N1CCCCC1 [Example 0435] |  |  | Physical data: log P: 4.51
47 | O=C(/C=C/c1c(-c2ccc(F)cc2)nc2sc(C(F)(F)F)nn12)N1CCCCC1 [Example 0364] |  |  | Physical data: log P: 3.85
48 | CON(C)C(=O)/C=C/c1c(-c2cccc(C(F)(F)F)c2)nc2sc(C(F)(F)F)nn12 [Example 0433] |  |  | Physical data: log P: 4.01

Continued, in another order:

Row | Physical data (logP) | Physical data: logP | Structure (SMILES) | further results
49 | 4.09 |  | O=C(/C=C/c1c(-c2ccccc2Cl)nc2sc(C(F)(F)F)nn12)NCCc1ccc(Cl)cc1 [Example 0199] | 
50 | 3.25 |  | CCNC(=O)/C=C/c1c(-c2ccc(Cl)cc2)nc2sc(C(F)(F)F)nn12 [Example 0006] | 
51 | 2.72 |  | O=C(O)/C=C/c1c(-c2sccc2Cl)nc2sc(C(F)(F)F)nn12 [VA126] | 
52 | 3.31 |  | O=C(/C=C/c1c(-c2ccc(Cl)cc2)nc2sc(C(F)(F)F)nn12)NC1CC1 [Example 0011] | 
53 |  | 4.35 | CC(C)C(NC(=O)C=Cc1c(-c2nccs2)nc2sc(C(F)(F)C(F)(F)F)nn12)C(F)(F)F (centres unmarked) [Example 0988] | 
54 |  | 2.77 | CC(C)NC(=O)/C=C/c1c(-c2ccccc2Cl)nc2scc(-c3ccccc3)n12 [Example 0904] | 
55 |  | 2.8 | COCc1nn2c(/C=C/C(=O)NC3CCCC3)c(-c3ccccc3Cl)nc2s1 [Example 0831] | 
56 | 4.27 |  | COCC(C)NC(=O)/C=C/c1c(-c2ccc(Cl)cc2)nc2sc(C(F)(F)F)nn12 (centres unmarked) [Example 0018] | 
57 | 2.77 |  | Cc1ccccc1-c1nc2sc(C(F)(F)F)nn2c1/C=C/C(=O)O [VA-5] | 
58 | 4.16 |  | CCN(CC)C(=O)/C=C/c1c(-c2ccc(Cl)cc2)nc2sc(C(F)(F)F)nn12 [Example 0070] | 
59 | 3.31 |  | O=C(O)/C=C/c1c(-c2ccc(F)cc2Cl)nc2sc(C(F)(F)C(F)(F)F)nn12 [VA114] | 
60 |  | 3.66 | CC(C)NC(=O)/C=C/c1c(-c2ccccc2Cl)nc2sc(C(F)(F)C(F)(F)F)nn12 [Example 0959] | 
61 |  | 2.4 | COCc1nn2c(/C=C/C(=O)NC(C)C)c(-c3ccccc3Cl)nc2s1 [Example 0824] | 
62 |  | 2.36 | Cc1csc2nc(-c3ccccc3Cl)c(/C=C/C(=O)NCC(F)(F)F)n12 [Example 0888] | 
63 |  | 3.45 | Cc1cn2c(C=CC(=O)NC(C(C)C)C(F)(F)F)c(-c3ccccc3Cl)nc2s1 (centres unmarked) [Example 0862] | 
64 | 4.37 |  | CCCC(C)NC(=O)/C=C/c1c(-c2cccc(Cl)c2)nc2sc(C(F)(F)F)nn12 (centres unmarked) [Example 0088] | 
65 | 4.78 |  | O=Cc1c(-c2ccc(-c3ccc(OC(F)(F)F)cc3)cc2)nc2sc(C(F)(F)F)nn12 [IVA121] | 
66 | 3.61 |  | CC(C)NC(=O)/C=C/c1c(-c2ccc(Cl)cc2)nc2sc(C(F)(F)F)nn12 [Example 0007] | 
67 |  | 3.27 | CC(C)NC(=O)/C=C/c1c(-c2nccs2)nc2sc(C(F)(F)C(F)(F)F)nn12 [Example 0985] | 
68 |  | 3.14 | CCC(C)NC(=O)/C=C/c1c(-c2ccc(OC)c(OC)c2)nc2sc(C(F)(F)F)nn12 (centres unmarked) [Example 0661] | 
69 | 4.82 |  | CCC(NC(=O)C=Cc1c(-c2ccccc2Cl)nc2sc(C(F)(F)F)nn12)C1CCCCC1 (centres unmarked) [Example 0196] | 
70 | 2.43 |  | O=Cc1c(-c2nccs2)nc2sc(C(F)(F)F)nn12 [IVA113] | 
71 | 2.1 |  | O=C(O)/C=C/c1c(-c2cccnc2Cl)nc2sc(C(F)(F)F)nn12 [VA118] | 
